ChEMBL document CHEMBL1201862, “PubChem BioAssay data set” (2004)
The source made the active and inactive calls.

Tests used:
[1] = biological target: T1, Neuropeptide Y receptor type 2 (Homo sapiens, UniProt P49146); assay: Fluorescence-based cell-based high-throughput dose response assay for agonists of NPY-Y2. [Related pubchem assays: 1703 (Screening assay (CNGC inhibitors).), 1359 (Screening assay (NPY-Y2 potentiators or agonists).), 1304 (Screening assay (NPY-Y1 potentiators or agonists).), 1710 (Screening assay (NPY-Y2 agonists).), 1791 (Summary AID.)]; type: functional
T1 sequence (P49146 whole entry): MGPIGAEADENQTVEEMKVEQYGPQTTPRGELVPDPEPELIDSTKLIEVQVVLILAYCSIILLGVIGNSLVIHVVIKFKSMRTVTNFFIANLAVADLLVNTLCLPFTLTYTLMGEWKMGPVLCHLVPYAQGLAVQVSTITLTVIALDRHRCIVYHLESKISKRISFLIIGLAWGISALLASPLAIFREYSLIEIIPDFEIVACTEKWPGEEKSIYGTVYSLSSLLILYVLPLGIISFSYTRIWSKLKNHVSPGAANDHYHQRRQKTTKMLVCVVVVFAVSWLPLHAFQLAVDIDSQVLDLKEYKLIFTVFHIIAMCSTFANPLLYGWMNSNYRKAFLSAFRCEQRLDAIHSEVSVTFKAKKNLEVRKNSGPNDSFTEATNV

[2] = biological target: T2, Neuropeptide Y receptor type 1 (Homo sapiens, UniProt P25929); assay: Fluorescence-based counterscreen for potentiators or agonists of NPY-Y2: cell-based high-throughput dose response assay for potentiators or agonists of NPY-Y1.; type: functional
T2 sequence (P25929 whole entry): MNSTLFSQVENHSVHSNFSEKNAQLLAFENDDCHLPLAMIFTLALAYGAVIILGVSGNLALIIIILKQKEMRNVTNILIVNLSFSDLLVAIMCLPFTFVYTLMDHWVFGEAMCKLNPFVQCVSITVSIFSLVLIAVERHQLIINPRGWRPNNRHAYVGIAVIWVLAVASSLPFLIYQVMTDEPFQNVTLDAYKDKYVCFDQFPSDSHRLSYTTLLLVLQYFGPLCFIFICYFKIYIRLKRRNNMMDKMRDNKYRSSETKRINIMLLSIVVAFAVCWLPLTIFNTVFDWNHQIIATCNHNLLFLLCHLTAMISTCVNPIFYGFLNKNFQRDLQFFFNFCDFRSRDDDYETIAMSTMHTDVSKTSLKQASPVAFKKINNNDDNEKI

[3] = biological target: T2, Neuropeptide Y receptor type 1; assay: Fluorescence-based counterscreen for agonists of NPY-Y2: cell-based high-throughput dose response assay for agonists of NPY-Y1.; type: functional
[4] = biological target: T3, Replicative DNA helicase DnaB (Mycobacterium tuberculosis, UniProt P9WMR3); assay: DnaB intein splicing inhibitors, dose response, biochemical, cell-free fluorescence (AID 449749); type: functional
T3 sequence (P9WMR3 whole entry): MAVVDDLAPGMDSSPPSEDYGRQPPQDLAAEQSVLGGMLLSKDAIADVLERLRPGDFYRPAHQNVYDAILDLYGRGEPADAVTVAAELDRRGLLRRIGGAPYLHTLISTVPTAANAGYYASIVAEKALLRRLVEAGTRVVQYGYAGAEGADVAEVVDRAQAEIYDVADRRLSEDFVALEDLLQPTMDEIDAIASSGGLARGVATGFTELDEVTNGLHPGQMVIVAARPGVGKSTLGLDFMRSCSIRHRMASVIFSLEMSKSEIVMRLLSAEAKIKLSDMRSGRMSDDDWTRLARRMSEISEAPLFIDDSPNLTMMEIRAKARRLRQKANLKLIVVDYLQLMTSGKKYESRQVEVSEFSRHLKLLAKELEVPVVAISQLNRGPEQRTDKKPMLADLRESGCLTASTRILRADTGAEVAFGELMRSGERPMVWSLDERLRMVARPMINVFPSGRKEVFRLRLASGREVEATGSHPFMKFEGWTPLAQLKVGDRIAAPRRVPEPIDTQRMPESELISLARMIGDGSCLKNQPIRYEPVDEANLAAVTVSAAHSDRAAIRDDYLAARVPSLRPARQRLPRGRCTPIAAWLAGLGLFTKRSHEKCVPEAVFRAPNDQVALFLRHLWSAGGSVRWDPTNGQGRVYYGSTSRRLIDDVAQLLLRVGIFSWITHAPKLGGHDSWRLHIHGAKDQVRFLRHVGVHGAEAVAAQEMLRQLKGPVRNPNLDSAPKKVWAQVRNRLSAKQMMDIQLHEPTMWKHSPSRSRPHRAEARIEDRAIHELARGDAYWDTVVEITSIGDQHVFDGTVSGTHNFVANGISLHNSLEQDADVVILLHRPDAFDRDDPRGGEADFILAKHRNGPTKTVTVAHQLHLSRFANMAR

Streptokinase A = biological target: T4, Streptokinase A (Streptococcus pyogenes serotype M1, UniProt P10520); assay: viability-normalized secreted streptokinase activity reduction – plasminogen activation absorbance, OD405, dose response (AID 1914); type: functional, Streptococcus pyogenes M1 GAS;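 note: secreted streptokinase activity via plasminogen activation per viability signal from cell pellet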
T4 sequence (P10520 whole entry): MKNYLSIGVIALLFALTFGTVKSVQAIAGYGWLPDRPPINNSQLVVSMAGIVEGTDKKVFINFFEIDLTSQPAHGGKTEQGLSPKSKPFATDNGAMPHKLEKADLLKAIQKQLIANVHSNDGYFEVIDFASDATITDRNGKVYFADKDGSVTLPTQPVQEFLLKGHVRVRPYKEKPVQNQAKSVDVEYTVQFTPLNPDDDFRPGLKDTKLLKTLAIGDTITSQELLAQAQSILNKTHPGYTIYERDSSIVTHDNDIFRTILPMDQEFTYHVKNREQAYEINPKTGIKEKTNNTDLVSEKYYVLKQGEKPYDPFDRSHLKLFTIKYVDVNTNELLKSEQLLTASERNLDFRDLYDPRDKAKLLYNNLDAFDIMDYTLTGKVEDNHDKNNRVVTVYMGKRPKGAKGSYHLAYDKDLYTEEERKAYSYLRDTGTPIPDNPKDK

[5] = biological target: Photoreceptor-specific nuclear receptor (Homo sapiens, UniProt Q9Y5X4); type: functional, cell-based;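 note: CHO-S cells with Gal4-NCOR and VP16-NR2E3 two-hybrid luciferase reporter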
[6] = biological target: T1, Neuropeptide Y receptor type 2; assay: Fluorescence-based cell-based high-throughput dose response assay for potentiators or agonists of NPY-Y2. [Related pubchem assays: 1539 (Screening assay (NPY-Y2 potentiators or agonists).), 1703 (Screening assay (CNGC inhibitors).), 1359 (Screening assay (NPY-Y2 potentiators or agonists).), 1304 (Screening assay (NPY-Y1 potentiators or agonists).) …; type: functional
Protein RecA = biological target: T5, Protein RecA (Mycobacterium tuberculosis, UniProt P9WHJ3); assay: Fluorescence Cell-Free Homogeneous Dose Retest to Identify Inhibitors of RecA-Intein Splicing Activity. [Related pubchem assays (depositor defined):AID2097, AID2223, AID489010, AID492950]; type: functional
T5 sequence (P9WHJ3 whole entry): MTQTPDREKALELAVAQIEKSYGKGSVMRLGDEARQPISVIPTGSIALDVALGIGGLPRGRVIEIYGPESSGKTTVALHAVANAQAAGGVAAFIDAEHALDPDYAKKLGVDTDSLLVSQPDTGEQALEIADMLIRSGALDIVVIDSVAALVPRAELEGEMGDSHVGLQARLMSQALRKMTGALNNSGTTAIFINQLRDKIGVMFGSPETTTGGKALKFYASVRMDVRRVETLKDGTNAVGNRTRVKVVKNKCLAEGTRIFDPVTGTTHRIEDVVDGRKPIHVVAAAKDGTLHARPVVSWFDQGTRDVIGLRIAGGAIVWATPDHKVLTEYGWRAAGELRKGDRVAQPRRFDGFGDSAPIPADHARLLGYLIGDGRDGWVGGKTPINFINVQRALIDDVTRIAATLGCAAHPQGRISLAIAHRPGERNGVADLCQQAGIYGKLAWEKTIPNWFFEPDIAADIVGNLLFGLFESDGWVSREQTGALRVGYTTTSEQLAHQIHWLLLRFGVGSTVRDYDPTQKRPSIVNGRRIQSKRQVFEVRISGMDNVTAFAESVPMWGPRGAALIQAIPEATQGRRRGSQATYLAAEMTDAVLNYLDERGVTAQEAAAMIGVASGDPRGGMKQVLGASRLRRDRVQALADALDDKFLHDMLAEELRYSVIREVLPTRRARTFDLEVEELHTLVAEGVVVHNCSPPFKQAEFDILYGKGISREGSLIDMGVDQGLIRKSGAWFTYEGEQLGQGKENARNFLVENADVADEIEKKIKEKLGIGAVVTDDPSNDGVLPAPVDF

[7] = A Cell Based Secondary Assay To Explore Cytotoxicity of Compounds that Sensitize Mycobacterium Tuberculosis to Beta-Lactam Antibiotics.; type: functional
Mucolipin-3 = Mucolipin-3 (Homo sapiens, UniProt Q8TDD5); assay: Dose response cell-based high-throughput screening assay for agonists of the transient receptor potential channel ML3 (TRPML3). [Related pubchem assays: 1526, 1424, 1448 ]; type: functional
Ion channel NompC = Ion channel NompC (Danio rerio, UniProt Q7T1G6); assay: Fluorescence counterscreen assay for TRPML3 agonists: dose response cell-based high-throughput screening assay to identify agonists of the transient receptor potential channel N1 (TRPN1). [Related pubchem assays: 1526, 1424, 1448 ]; type: functional
Estrogen receptor beta = Estrogen receptor beta (Homo sapiens, UniProt Q92731); assay: blockers of SRC-3 recruitment to ERβ – biochemical, ELISA, streptavidin-HRP readout, orthogonal assay, confirmation (AID 1060)
Bcl-2-like protein 10 = Bcl-2-like protein 10 (Homo sapiens, UniProt Q9HD36); assay: Bcl-B/TR3 peptide binding disruption – biochemical, fluorescence polarization, FITC-TR3 peptide, selectivity assay for Bfl-1 inhibitor project, primary screen (AID 748);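 note: fluorescence polarization from a fluorescein-labelled TR3 peptide binding purified Bcl-B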
Bcl-2-like protein 10, sequence (Q9HD36 whole entry): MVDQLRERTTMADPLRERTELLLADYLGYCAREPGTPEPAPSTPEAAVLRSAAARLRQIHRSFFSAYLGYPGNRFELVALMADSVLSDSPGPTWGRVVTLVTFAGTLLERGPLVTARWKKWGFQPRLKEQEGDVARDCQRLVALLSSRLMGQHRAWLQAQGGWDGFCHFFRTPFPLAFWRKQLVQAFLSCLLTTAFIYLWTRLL

Mucolipin-3, sequence (Q8TDD5 whole entry): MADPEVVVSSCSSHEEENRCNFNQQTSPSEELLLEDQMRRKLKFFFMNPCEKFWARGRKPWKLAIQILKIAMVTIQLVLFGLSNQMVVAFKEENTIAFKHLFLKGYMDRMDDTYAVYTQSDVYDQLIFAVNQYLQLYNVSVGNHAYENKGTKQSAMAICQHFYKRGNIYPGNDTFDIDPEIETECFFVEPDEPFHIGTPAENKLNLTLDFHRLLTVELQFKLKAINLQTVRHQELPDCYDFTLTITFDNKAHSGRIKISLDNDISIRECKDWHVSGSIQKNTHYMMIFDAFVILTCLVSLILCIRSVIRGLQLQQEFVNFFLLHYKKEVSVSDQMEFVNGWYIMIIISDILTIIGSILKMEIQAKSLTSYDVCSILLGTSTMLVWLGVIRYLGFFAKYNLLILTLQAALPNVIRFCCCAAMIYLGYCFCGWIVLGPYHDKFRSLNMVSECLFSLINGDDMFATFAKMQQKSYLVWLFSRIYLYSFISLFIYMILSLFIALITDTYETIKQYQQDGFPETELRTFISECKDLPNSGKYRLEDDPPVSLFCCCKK
Photoreceptor-specific nuclear receptor, sequence (Q9Y5X4 whole entry, the tested form may be a part): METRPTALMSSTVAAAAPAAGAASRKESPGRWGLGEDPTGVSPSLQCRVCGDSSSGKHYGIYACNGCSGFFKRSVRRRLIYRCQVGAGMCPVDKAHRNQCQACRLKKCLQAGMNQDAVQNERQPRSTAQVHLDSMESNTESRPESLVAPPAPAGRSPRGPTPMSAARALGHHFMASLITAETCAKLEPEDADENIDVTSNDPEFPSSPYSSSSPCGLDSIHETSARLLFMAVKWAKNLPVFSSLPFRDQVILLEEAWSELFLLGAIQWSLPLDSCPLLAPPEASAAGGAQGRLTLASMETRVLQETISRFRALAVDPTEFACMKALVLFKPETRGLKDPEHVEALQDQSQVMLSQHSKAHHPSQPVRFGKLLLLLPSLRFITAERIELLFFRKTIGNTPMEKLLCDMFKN
Ion channel NompC, sequence (Q7T1G6 whole entry): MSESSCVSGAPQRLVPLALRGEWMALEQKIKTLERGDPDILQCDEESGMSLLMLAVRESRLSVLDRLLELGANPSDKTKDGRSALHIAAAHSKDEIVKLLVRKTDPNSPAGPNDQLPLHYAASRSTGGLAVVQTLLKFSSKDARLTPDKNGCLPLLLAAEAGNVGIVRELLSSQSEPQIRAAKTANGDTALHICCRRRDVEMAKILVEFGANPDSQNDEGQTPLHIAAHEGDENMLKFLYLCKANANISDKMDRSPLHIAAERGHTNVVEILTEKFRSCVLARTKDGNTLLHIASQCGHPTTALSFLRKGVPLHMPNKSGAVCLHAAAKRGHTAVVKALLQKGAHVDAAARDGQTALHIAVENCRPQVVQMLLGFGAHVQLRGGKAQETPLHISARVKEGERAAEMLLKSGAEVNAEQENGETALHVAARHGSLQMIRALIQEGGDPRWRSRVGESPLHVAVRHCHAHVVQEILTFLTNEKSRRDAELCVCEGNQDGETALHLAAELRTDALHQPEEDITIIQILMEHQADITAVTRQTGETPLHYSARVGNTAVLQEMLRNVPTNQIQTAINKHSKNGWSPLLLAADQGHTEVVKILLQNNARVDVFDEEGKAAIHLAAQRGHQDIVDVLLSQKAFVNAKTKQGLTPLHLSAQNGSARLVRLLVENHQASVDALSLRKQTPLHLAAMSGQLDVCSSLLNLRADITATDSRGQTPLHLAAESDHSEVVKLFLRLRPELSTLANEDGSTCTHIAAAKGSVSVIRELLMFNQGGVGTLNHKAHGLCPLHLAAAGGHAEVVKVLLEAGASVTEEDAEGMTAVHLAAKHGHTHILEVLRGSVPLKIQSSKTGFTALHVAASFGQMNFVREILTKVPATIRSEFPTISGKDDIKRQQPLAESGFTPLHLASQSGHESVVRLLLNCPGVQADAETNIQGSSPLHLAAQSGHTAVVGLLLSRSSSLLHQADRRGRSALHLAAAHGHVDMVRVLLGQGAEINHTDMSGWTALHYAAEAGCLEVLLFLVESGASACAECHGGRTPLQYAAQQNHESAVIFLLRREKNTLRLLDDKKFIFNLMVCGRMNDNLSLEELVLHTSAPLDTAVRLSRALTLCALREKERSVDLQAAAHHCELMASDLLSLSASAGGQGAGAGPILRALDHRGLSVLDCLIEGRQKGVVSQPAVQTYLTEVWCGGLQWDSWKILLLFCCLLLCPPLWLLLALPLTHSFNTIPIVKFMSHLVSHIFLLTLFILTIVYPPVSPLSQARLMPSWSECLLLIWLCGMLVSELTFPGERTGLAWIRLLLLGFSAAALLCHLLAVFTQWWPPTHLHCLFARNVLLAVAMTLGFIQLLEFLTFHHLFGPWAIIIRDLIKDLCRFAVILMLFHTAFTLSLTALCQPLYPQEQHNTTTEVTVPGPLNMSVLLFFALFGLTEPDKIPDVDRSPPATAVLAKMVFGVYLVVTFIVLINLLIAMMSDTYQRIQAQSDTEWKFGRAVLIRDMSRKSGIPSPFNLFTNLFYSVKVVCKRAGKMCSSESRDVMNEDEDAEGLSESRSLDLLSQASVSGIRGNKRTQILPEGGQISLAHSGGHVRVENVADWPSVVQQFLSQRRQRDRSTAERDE
Estrogen receptor beta, sequence (Q92731 whole entry): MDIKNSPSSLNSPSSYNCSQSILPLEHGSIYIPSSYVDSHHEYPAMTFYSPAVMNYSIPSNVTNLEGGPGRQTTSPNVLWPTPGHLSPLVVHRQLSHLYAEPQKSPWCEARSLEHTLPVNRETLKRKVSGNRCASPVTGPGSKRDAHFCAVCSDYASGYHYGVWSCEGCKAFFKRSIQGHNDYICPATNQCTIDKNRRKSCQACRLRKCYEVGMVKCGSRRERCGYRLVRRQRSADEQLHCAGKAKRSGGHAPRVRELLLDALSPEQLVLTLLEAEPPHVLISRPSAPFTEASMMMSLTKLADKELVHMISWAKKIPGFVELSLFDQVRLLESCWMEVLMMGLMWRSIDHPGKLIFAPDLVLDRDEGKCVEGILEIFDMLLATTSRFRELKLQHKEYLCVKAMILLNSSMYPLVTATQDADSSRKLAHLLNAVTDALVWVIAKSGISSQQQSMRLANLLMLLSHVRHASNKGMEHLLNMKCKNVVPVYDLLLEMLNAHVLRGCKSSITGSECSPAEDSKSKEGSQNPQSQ

O=[N+]([O-])c1cc(C(F)(F)F)cc([N+](=O)[O-])c1NCCNC(=S)Nc1ccc(Cl)c(Cl)c1
EC50 [1]: 8.24 µM (active)
EC50 [2]: 11.2 µM (not active)
EC50 [3]: 6 µM (active)
AC50 [4]: 4.92 µM (active)
EC50 (Streptokinase A): 7.06 µM (inconclusive)
IC50 [5]: 7.03 µM (active)
EC50 [6]: 8.69 µM (active)
EC50 (Protein RecA): 303 µM (active)

O=C(COc1ccccc1)Nc1cccc(-c2nnc(-c3ccccc3)o2)c1
CC50 [7]: > 40 µM (active)

Cc1onc(-c2ccc(Cl)cc2)c1-c1ccnn1S(=O)(=O)c1cccc(C(F)(F)F)c1
EC50 (Mucolipin-3): 4.26 µM (active)
EC50 (Ion channel NompC): > 29.9 µM (not active)

O=C(c1cnccn1)N1CCc2ccccc21
IC50 (Estrogen receptor beta): < 0.023 µM (not active)
IC50 (Bcl-2-like protein 10): 23.7 µM (active)
